Several values for one entry are separate records, joined by “and”; a condition that tells them apart may be missing. Equal entries are not always repeated. Inconclusive results and toxic doses are left out.
Test system: BDF1 mice, P388 leukemia ip, median survival T/C
Assay: NCI In Vivo Anticancer Drug Screen. Data for tumor model P388 Leukemia (intraperitoneal) in B6D2F1 (BDF1) mice
Details: endpoint: median survival time, higher = longer survival
Procedure, shortened: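 Survival ratio, drug arm over vehicle arm, in mice with a transplanted tumour.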

[1] = dose: 0.25 mg/kg/injection, schedule: Q01DX009 (ip), vehicle: saline
[2] = dose: 25.0 mg/kg/injection, schedule: Q01DX009 (ip), vehicle: saline with Tween-80
[3] = dose: 50.0 mg/kg/injection, schedule: Q01DX009 (ip), vehicle: saline with Tween-80
[4] = dose: 100.0 mg/kg/injection, schedule: Q01DX009 (ip), vehicle: saline
[5] = dose: 100.0 mg/kg/injection, schedule: Q01DX009 (ip), vehicle: saline with Tween-80
[6] = dose: 25.0 mg/kg/injection, schedule: Q01DX009 (ip), vehicle: saline
[7] = dose: 50.0 mg/kg/injection, schedule: Q01DX009 (ip), vehicle: saline
[8] = dose: 12.5 mg/kg/injection, schedule: Q01DX009 (ip), vehicle: saline
[9] = dose: 200.0 mg/kg/injection, schedule: Q01DX009 (ip), vehicle: saline with Tween-80
[10] = dose: 100.0 mg/kg/injection, schedule: Q04DX003 (ip), vehicle: saline with Tween-80
[11] = dose: 200.0 mg/kg/injection, schedule: Q04DX003 (ip), vehicle: saline with Tween-80
[12] = dose: 50.0 mg/kg/injection, schedule: Q01DX005 (ip), vehicle: saline
[13] = dose: 100.0 mg/kg/injection, schedule: Q01DX005 (ip), vehicle: saline
[14] = dose: 200.0 mg/kg/injection, schedule: Q01DX005 (ip), vehicle: saline
[15] = dose: 100.0 mg/kg/injection, schedule: Q04DX003 (ip), vehicle: Klucel (hydroxypropylcellulose) (HPC)
[16] = dose: 200.0 mg/kg/injection, schedule: Q04DX003 (ip), vehicle: Klucel (hydroxypropylcellulose) (HPC)

`CC(=O)NC1=C(N2CC2)C(=O)C(NC(C)=O)=C(N2CC2)C1=O` was tested, and the T/C (dose: 0.12 mg/kg/injection, schedule: Q01DX009 (ip), vehicle: saline) was 155 % of control, the T/C [1] was 166 % of control and 195 % of control and the T/C (dose: 0.5 mg/kg/injection, schedule: Q01DX009 (ip), vehicle: saline) was 270 % of control and 214 % of control. For the same compound, the T/C (dose: 1.0 mg/kg/injection, schedule: Q01DX009 (ip), vehicle: saline) was 285 % of control and 190 % of control and the T/C (dose: 2.0 mg/kg/injection, schedule: Q01DX009 (ip), vehicle: saline) was 109 % of control.

In the case of `NC(=S)N/N=C/c1cc(-c2cccc(N)c2)ccn1`, the T/C (dose: 12.5 mg/kg/injection, schedule: Q01DX009 (ip), vehicle: saline with Tween-80) is reported as 154 % of control, the T/C [2] is reported as 162 % of control and the T/C [3] is reported as 211 % of control. For the same compound, the T/C (dose: 75.0 mg/kg/injection, schedule: Q01DX009 (ip), vehicle: saline with Tween-80) was 178 % of control.

In the case of `Cc1nc2n[nH]c(N)c2nc1C`, the T/C [4] is reported as 100 % of control, the T/C (dose: 200.0 mg/kg/injection, schedule: Q01DX009 (ip), vehicle: saline) is reported as 100 % of control and the T/C (dose: 400.0 mg/kg/injection, schedule: Q01DX009 (ip), vehicle: saline) is reported as 91 % of control.

With `O=NN1CCNC1=O` the T/C (dose: 7.2 mg/kg/injection, schedule: Q04DX003 (ip), vehicle: saline) was 172 % of control, the T/C (dose: 10.0 mg/kg/injection, schedule: Q04DX003 (ip), vehicle: saline) was 113 % of control and the T/C (dose: 16.5 mg/kg/injection, schedule: Q04DX003 (ip), vehicle: saline) was 209 % of control. The T/C (dose: 25.0 mg/kg/injection, schedule: Q04DX003 (ip), vehicle: saline) was 86 % of control and the T/C (dose: 37.5 mg/kg/injection, schedule: Q04DX003 (ip), vehicle: saline) was 90 % of control.

In the case of `O=C1/C(=C/c2ccco2)CCC2CC3(CCC12)OCCO3` (stereo unspecified), the T/C (dose: 100.0 mg/kg/injection, schedule: Q04DX003 (ip), vehicle: other) is reported as 108 % of control, the T/C (dose: 200.0 mg/kg/injection, schedule: Q04DX003 (ip), vehicle: other) is reported as 91 % of control and the T/C (dose: 400.0 mg/kg/injection, schedule: Q04DX003 (ip), vehicle: other) is reported as 108 % of control.

With `COC(=O)c1ncccc1C(=O)O` the T/C [2] was 86 % of control, the T/C [3] was 95 % of control and the T/C [5] was 90 % of control.

For `CC(=O)/C(C1=NCCC1)=C(/C)O`, the T/C [6] was 109 % of control, the T/C [7] was 100 % of control and the T/C [4] was 100 % of control.

For `O=C1C(N2CCCC2)=C(N2CC2)C(=O)C(N2CCCC2)=C1N1CC1`, the T/C [1] was 172 % of control.

With `O.[Co].[Co].[NH2-].[NH2-].[NH2-].[NH2-].[NH2-].[NH2-].[NH2-].[NH2-].[NH2-]` the T/C (dose: 0.5 mg/kg/injection, schedule: Q01DX009 (ip), vehicle: water) was 100 % of control, the T/C (dose: 1.5 mg/kg/injection, schedule: Q04DX003 (ip), vehicle: water) was 121 % of control and the T/C (dose: 2.0 mg/kg/injection, schedule: Q01DX009 (ip), vehicle: water) was 95 % of control. The T/C (dose: 3.0 mg/kg/injection, schedule: Q04DX003 (ip), vehicle: water) was 95 % of control and the T/C (dose: 4.0 mg/kg/injection, schedule: Q01DX009 (ip), vehicle: water) was 100 % of control.

In the case of `CC(=O)O.CC(=O)O.CC(=O)O.CC(=O)O.[Rh].[Rh]`, the T/C (dose: 5.56 mg/kg/injection, schedule: Q01DX009 (ip), vehicle: saline) is reported as 100 % of control and 122 % of control, the T/C (dose: 8.33 mg/kg/injection, schedule: Q01DX009 (ip), vehicle: saline) is reported as 100 % of control and the T/C [8] is reported as 118 % of control. The T/C (dose: 18.7 mg/kg/injection, schedule: Q01DX009 (ip), vehicle: saline) was 90 % of control and 111 % of control.

For `O=c1[nH]nc(NCCO)c2ccccc12`, the T/C [3] was 112 % of control, the T/C [5] was 91 % of control and the T/C [9] was 102 % of control.

With `Cc1cccc2c1C(=O)OC2(C)c1cccc2ccccc12` (stereo unspecified) the T/C (dose: 50.0 mg/kg/injection, schedule: Q04DX003 (ip), vehicle: saline with Tween-80) was 99 % of control, the T/C [10] was 96 % of control and the T/C [11] was 118 % of control. For the same compound, the T/C (dose: 400.0 mg/kg/injection, schedule: Q04DX003 (ip), vehicle: saline with Tween-80) was 95 % of control.

For `O=C(CC(O)(C(F)(F)F)C(F)(F)F)c1ccc(Cl)cc1`, the T/C [3] was 108 % of control, the T/C [5] was 95 % of control and the T/C [9] was 108 % of control.

For `OCCN1CCN(CCCN2c3ccccc3Sc3ccc(C(F)(F)F)cc32)CC1`, the T/C (dose: 0.31 mg/kg/injection, schedule: Q01DX009 (ip), vehicle: saline) was 86 % of control, the T/C (dose: 0.62 mg/kg/injection, schedule: Q01DX009 (ip), vehicle: saline) was 90 % of control and the T/C (dose: 0.82 mg/kg/injection, schedule: Q01DX009 (ip), vehicle: saline) was 86 % of control. For the same compound, the T/C (dose: 1.25 mg/kg/injection, schedule: Q01DX009 (ip), vehicle: saline) was 113 % of control and the T/C (dose: 12.5 mg/kg/injection, schedule: Q04DX003 (ip), vehicle: saline) was 105 % of control.

With `OCCN(CCO)C(CO)(CO)CO` the T/C [12] was 100 % of control, the T/C [13] was 98 % of control and the T/C [14] was 104 % of control.

In the case of `CC(=N\O)/C(C)=N/O.CC(=N\O)/C(C)=N/O.[Cu]`, the T/C (dose: 3.0 mg/kg/injection, schedule: Q01DX009 (ip), vehicle: Klucel (hydroxypropylcellulose) (HPC)) is reported as 100 % of control, the T/C (dose: 6.25 mg/kg/injection, schedule: Q04DX003 (ip), vehicle: Klucel (hydroxypropylcellulose) (HPC)) is reported as 118 % of control and the T/C (dose: 12.5 mg/kg/injection, schedule: Q04DX003 (ip), vehicle: Klucel (hydroxypropylcellulose) (HPC)) is reported as 118 % of control.

With `COc1cc(NC(C)CCCN)c2nccc(C)c2c1` (stereo unspecified) the T/C [8] was 101 % of control, the T/C [6] was 101 % of control and the T/C [7] was 90 % of control and 107 % of control. For the same compound, the T/C [4] was 88 % of control.

For `CCN(CC)C(=O)c1cccc(COc2ccc(N3C(N)=NC(N)=NC3(C)C)cc2Cl)c1`, the T/C (dose: 16.5 mg/kg/injection, schedule: Q01DX009 (ip), vehicle: saline) was 110 % of control, the T/C [6] was 120 % of control and the T/C (dose: 37.5 mg/kg/injection, schedule: Q01DX009 (ip), vehicle: saline) was 120 % of control.

For `Cc1[nH]ncc1Br`, the T/C [5] was 105 % of control, the T/C [9] was 98 % of control and the T/C (dose: 400.0 mg/kg/injection, schedule: Q01DX009 (ip), vehicle: saline with Tween-80) was 105 % of control.

With `CNC(=O)c1ccccc1C(O)(c1ccccc1)c1ccccc1` the T/C [15] was 113 % of control, the T/C [16] was 109 % of control and the T/C (dose: 400.0 mg/kg/injection, schedule: Q04DX003 (ip), vehicle: Klucel (hydroxypropylcellulose) (HPC)) was 100 % of control.

For `COc1ccc(OC)c(NC(=O)NC(c2ccccc2)c2ccccc2)c1`, the T/C (dose: 12.5 mg/kg/injection, schedule: Q01DX009 (ip), vehicle: Klucel (hydroxypropylcellulose) (HPC)) was 93 % of control.

`CC(NC(=O)C(N)C(C)C)C(=O)O` (stereo unspecified) was tested, and the T/C [12] was 92 % of control, the T/C [13] was 97 % of control and the T/C [14] was 92 % of control.

For `CNC(=S)N/N=C(/C)CCC(=O)O`, the T/C (dose: 6.75 mg/kg/injection, schedule: Q01DX009 (ip), vehicle: saline with Tween-80) was 87 % of control, the T/C (dose: 13.5 mg/kg/injection, schedule: Q01DX009 (ip), vehicle: saline with Tween-80) was 88 % of control and the T/C (dose: 27.0 mg/kg/injection, schedule: Q01DX009 (ip), vehicle: saline with Tween-80) was 86 % of control.

`CC(C)=CCNc1ncnc2c1ncn2C1OC(CO)C(O)C1O` (stereo unspecified) was tested, and the T/C (dose: 50.0 mg/kg/injection, schedule: Q04DX003 (ip), vehicle: Klucel (hydroxypropylcellulose) (HPC)) was 95 % of control, the T/C [15] was 100 % of control and the T/C [10] was 104 % of control. For the same compound, the T/C [16] was 95 % of control and the T/C [11] was 100 % of control.

For `COc1cc2c(c3c1c(=O)c1cc(O)ccc1n3C)C=CC(C)(C)O2`, the T/C (dose: 5.0 mg/kg/injection, schedule: Q01DX009 (ip), vehicle: Klucel (hydroxypropylcellulose) (HPC)) was 114 % of control, the T/C (dose: 10.0 mg/kg/injection, schedule: Q01DX009 (ip), vehicle: Klucel (hydroxypropylcellulose) (HPC)) was 113 % of control and the T/C (dose: 20.0 mg/kg/injection, schedule: Q01DX009 (ip), vehicle: Klucel (hydroxypropylcellulose) (HPC)) was 112 % of control. For the same compound, the T/C (dose: 40.0 mg/kg/injection, schedule: Q01DX009 (ip), vehicle: Klucel (hydroxypropylcellulose) (HPC)) was 106 % of control.
